Test results: patent US20110262490A1, “POLYMER-AGENT CONJUGATES, PARTICLES, COMPOSITIONS, AND RELATED METHODS OF USE” (priority 2009, published 2011)
Where “and” joins values, the source holds several entries; their conditions need not be identical. Equal values may be shown once.

Key:
murine melanoma tumor = assay: Efficacy and survival in aggressive murine melanoma model at MTD (Example 92); assay type: in vivo, mouse; details: every other week dosing at MTD
Experimental: Thus, the sustained release properties of a particle according to exemplary particle 1 supports less frequent dosing of patients. Methods: Tumor-bearing mice were injected with a particle according to exemplary particle 1 or docetaxel at their respective MTD. See, for example, FIGS. 6a and 6b.

B16.F10 tumor [1] = assay: Efficacy and tolerability in B16.F10 murine melanoma model (Example 43); assay type: in vivo, mouse
Experimental: Refer to table for detailed description of formulations.
Tumor volume was calculated with the following equation: (width×width×length)/2 mm^3.

SK-OV-3 tumor = assay: In vivo efficacy in SK-OV-3 ovarian human xenograft model (Example 45); set-up: species or system mouse
Experimental: SK-OV-3 cells were grown in culture to confluency in RPMI medium containing 10% FBS and 1% penicillin/streptomycin and then resuspended in RPMI (passage 4) for implantation into mice. This suspension of SK-OV-3 cells (density=30×10^6 cells/mL) was implanted into the mammary gland of female CD-1 nude mice on Day 1. […]

H1299 tumor = assay: Efficacy and tolerability in non-small cell lung carcinoma model H1299 (Example 60); details: for Tumor growth inhibition (% TGI): 30 mg/kg IV 1/wk×2, 30 mg/kg
Experimental: H1299 cells were grown in culture to 85-90% confluency in RPMI medium supplemented with 10% fetal bovine serum (FBS), 1% glutamine and 1% penicillin/streptomycin. Cells were removed from the culture flask using 0.05% trypsin (passage=4), re-suspended in RPMI medium (density=50×10^6 cells/mL) and were implanted subcutaneously (5×10^6 cells in 100 μL RPMI medium/mouse) into the mammary fat pad area of male nu/nu mice on day 1.
The treatments were administered IV into the tail vein at a dose volume of 10 and 20 mL/kg for 30 and 60 mg/kg respectively, beginning on post-implantation day 30 when the mean tumor volume was ca. 170 mm^3 (small tumor group), and on day 37 when the mean tumor volume was ca. 440 mm^3 (large tumor group). Body weight and tumor volume were measured for three times a week during the dosing period and twice a week thereafter. In addition, animals were also monitored for any morbidity and adverse effects for three times a week during the dosing period and twice a week thereafter.
Tumor volume was calculated with (width×width×length)/2 mm^3 formula. Efficacy was determined by tumor growth inhibition (TGI), tumor growth delay (TGD) and survival. Tumor growth inhibition (TGI) is represented as % and calculated as (1−(treated tumor volume/control tumor volume))×100 when the control group mean tumor volume reached ≧1000 mm^3 Tumor growth delay (TGD) is calculated by subtracting the day when the vehicle treated group reached the maximum tumor size 1000 mm^3 from the day when the treatment group tumor size reached 1000 mm^3.

MDA-MB-435 tumor [2] = assay: In vivo efficacy in MDA-MB-435 melanoma human xenograft model (Example 46); set-up: species or system mouse
Experimental: MDA-MB-435 cells were grown in culture to confluency in RPMI medium containing 10% FBS and 1% penicillin/streptomycin and then resuspended in RPMI (passage 4) for implantation into mice. A volume of 0.1 mL containing 4.0×10^6 cells MDA-MB-435 cells were implanted into the mammary gland of female CD-1 nude mice on Day 1.

[3] = Tolerability in normal male C57BL/6 non-tumor-bearing mice (Example 47); assay type: in vivo, mouse; details: for Ataxia: n=5
Experimental: Treatments were administered intravenously on a q7dx2 schedule, i.e., two treatments seven days apart (the first treatment was on Day one). The study ended on Day 14, six days after the 2nd treatment. Blood was collected for complete blood count (CBC) and serum chemistry. Leg muscles were collected so that nerve degeneration could be assessed from the sciatic nerve.

B16.F10 tumor [4] = assay: Efficacy and tolerability in mouse melanoma model B16.F10 (Example 61)
Experimental: Briefly, ATP and oxygen in viable cells reduce luciferin to oxyluciferin in the presence of luciferase to produce energy in the form of light. B16.F10 cells were grown in culture to 85-90% confluency in MEM-alpha medium supplemented with fetal bovine serum (FBS) and 1% penicillin/streptomycin. Cells were removed from the flask using 0.05% trypsin (passage=4), re-suspended in PBS (density=10×10^6 cells/mL) and were implanted subcutaneously (1×10^6 cells in 100 μL PBS/mouse) into the right flank of male C57BL/6 mice on day 1.
The treatments were administered IV into the tail vein at a dose volume of 10 ml/kg, beginning on post-implantation day 5, when the mean tumor volume was ca. 60 mm^3 Animals were monitored for any morbidity and adverse effects three times a week. In addition, body weight and tumor volume were also measured three times a week.
Tumor volume was calculated with (width×width×length)/2 mm^3 formula. Efficacy was determined by tumor growth inhibition (TGI), tumor growth delay (TGD) and survival. Tumor growth inhibition (TGI) is represented as % and calculated as (1−(treated tumor volume/control tumor volume))×100 when the control group mean tumor volume reached ≧3000 mm^3 Tumor growth delay (TGD) is calculated by subtracting the day when the vehicle treated group reached the maximum tumor size 3000 mm^3 from the day when the treatment group tumor size reached 3000 mm^3. The criterion at which a mouse was removed from the study was tumor volume ≧3000 mm^3.

B16.F10 tumor [5] = assay: Efficacy and tolerability in mouse melanoma model B16.F10 (Example 58)
Experimental: B16.F10 cells were grown in culture to 85-90% confluency in MEM-alpha medium supplemented with 10% fetal bovine serum (FBS) and 1% penicillin/streptomycin. Cells were removed from the culture flask using 0.05% trypsin (passage=4), re-suspended in PBS (density=10×10^6 cells/mL) and were implanted subcutaneously (1×10^6 cells in 100 μL MEM-alpha medium/mouse) into the right flank of male C57BL/6 mice on day 1.
Body weight and tumor volume were measured three times a week. In addition, animals were also monitored for any morbidity and adverse effects three times a week.
Tumor volume was calculated with (width×width×length)/2 mm^3 formula. Efficacy was determined by tumor growth inhibition (TGI), tumor growth delay (TGD) and survival. Tumor growth inhibition (TGI) is represented as % and calculated as (1−(treated tumor volume/control tumor volume))×100 when the control group mean tumor volume reached ≧3000 mm^3. Tumor growth delay (TGD) is calculated by subtracting the day when the vehicle treated group reached the maximum tumor size 3000 mm^3 from the day when the treatment group tumor size reached 3000 mm^3. The criterion at which a mouse was removed from the study was tumor volume ≧3000 mm^3.

MDA-MB-435 tumor [6] = assay: MDA-MB-435 breast xenograft model, delayed treatment (Example 93); assay type: in vivo, mouse
Excerpt: See, for example, FIG. 7.

[7] = 15 mg/kg IV q3dq4dx3, listed as Docetaxel
[8] = 15 mg/kg IV three times, once every week
[9] = large tumor group, 30 mg/kg 1/wk×2
[10] = large tumor group, 60 mg/kg 1/wk×2
[11] = small tumor group, 30 mg/kg 1/wk×2
[12] = small tumor group, 60 mg/kg 1/wk×2
[13] = 30 mg/kg IV 1/wk×3, listed as free docetaxel

CC(=O)O[C@@]12CO[C@@H]1C[C@H](O)[C@@]1(C)C(=O)[C@H](O)C3=C(C)[C@@H](OC(=O)[C@H](O)[C@@H](NC(=O)OC(C)(C)C)c4ccccc4)C[C@@](O)([C@@H](OC(=O)c4ccccc4)[C@H]21)C3(C)C [Free docetaxel, docetaxel]
Tumor growth suppression (murine melanoma tumor): not sufficient to suppress tumor growth
Tumor growth inhibition (TGI) (B16.F10 tumor [1]; 15 mg/kg IV q3dq4dx3): 90%
Maximum body weight loss (B16.F10 tumor [1]; [7]): 11% and 12%
Tumor growth delay (TGD) (B16.F10 tumor [1]; [7]): 11 days and 12 days
Maximum body weight loss (B16.F10 tumor [1]; 15 mg/kg IV q4dq3dx3): 11%
Tumor growth delay (TGD) (B16.F10 tumor [1]; 15 mg/kg IV q4dq3dx3): 11 days
Tumor growth inhibition (TGI) (B16.F10 tumor [1]; 15 mg/kg IV q4dq3dx3): 90%
Maximum body weight loss (B16.F10 tumor [1]; [8]): 11%
Tumor growth delay (TGD) (B16.F10 tumor [1]; [8]): 11 days
Tumor growth inhibition (TGI) (B16.F10 tumor [1]; [8]): approximately 90%
Maximum body weight loss (B16.F10 tumor [1]; 30 mg/kg IV q7dx3): 11%
Tumor growth delay (TGD) (B16.F10 tumor [1]; 30 mg/kg IV q7dx3): 17 days
Tumor growth inhibition (TGI) (B16.F10 tumor [1]; 30 mg/kg IV q7dx3): 90%
Day tumor volume end point (3000 mm^3) reached (B16.F10 tumor [1]; 30 mg/kg q7dx3): 37 days
Tumor growth delay (TGD) (B16.F10 tumor [1]; 60 mg/kg IV q14dx2): 11 days
Tumor growth inhibition (TGI) (B16.F10 tumor [1]; 60 mg/kg IV q14dx2): 71%
Maximum body weight loss (B16.F10 tumor [1]; 60 mg/kg IV q14dx2, listed as Docetaxel): 0%
Maximum body weight loss (B16.F10 tumor [1]; 60 mg/kg IV q14dx2, listed as docetaxel): did not show any body weight loss
Day tumor volume end point (3000 mm^3) reached (B16.F10 tumor [1]; 60 mg/kg q14dx2): 29 days
Tumor growth delay (TGD) (SK-OV-3 tumor; 15 mg/kg IV weekly×2): 18 days
Ataxia (SK-OV-3 tumor; 30 mg/kg IV weekly×2): did not cause ataxia
Maximum body weight loss (SK-OV-3 tumor; 30 mg/kg IV weekly×2): 13%
Tumor growth delay (TGD) (SK-OV-3 tumor; 30 mg/kg IV weekly×2): 42 days
Body weight loss (SK-OV-3 tumor; 60 mg/kg IV weekly×2): greater than 20%
Day mean tumor volume endpoint (≧1000 mm^3) reached (H1299 tumor; [9]): 63 days
Day of 0% survival (H1299 tumor; [9]): 80 days
Day of 50% survival (H1299 tumor; [9]): 61 days
Hind limb paralysis (H1299 tumor; [9]): did not cause any significant body weight loss or hind limb paralysis
Increase in TGD (H1299 tumor; [9]): 43%
Maximum body weight loss (H1299 tumor; [9]): 19%
Tumor growth delay (TGD) (H1299 tumor; [9]): 19 days
Tumor shrinkage (H1299 tumor; [9]): no tumor shrinkage
Tumor growth inhibition (% TGI) (H1299 tumor; large tumor group): 49%
Tumor growth inhibition (% TGI) (H1299 tumor; large tumor group, listed as free docetaxel): 49%
Hind limb paralysis (H1299 tumor; [10]): severe hind limb paralysis
Maximum body weight loss (H1299 tumor; [10]): significant body weight loss
Day mean tumor volume endpoint (≧1000 mm^3) reached (H1299 tumor; [11]): 61 days
Day of 0% survival (H1299 tumor; [11]): 68 days
Day of 50% survival (H1299 tumor; [11]): 56 days
Hind limb paralysis (H1299 tumor; [11]): did not cause any significant body weight loss or hind limb paralysis
Increase in TGD (H1299 tumor; [11]): 39%
Maximum body weight loss (H1299 tumor; [11]): 18%
Tumor growth delay (TGD) (H1299 tumor; [11]): 17 days
Tumor growth inhibition (% TGI) (H1299 tumor; small tumor group): 64%
Tumor growth inhibition (% TGI) (H1299 tumor; small tumor group, listed as free docetaxel): 64%
Hind limb paralysis (H1299 tumor; [12]): severe hind limb paralysis
Maximum body weight loss (H1299 tumor; [12]): significant body weight loss
Maximum body weight loss (MDA-MB-435 tumor [2]; 15 mg/kg IV Days 21 and 28): 10%
Maximum body weight loss (MDA-MB-435 tumor [2]; 30 mg/kg IV Days 21 and 28): 14%
Ataxia (MDA-MB-435 tumor [2]; 30 mg/kg IV weekly×2): did not cause ataxia
Body weight loss (MDA-MB-435 tumor [2]; 60 mg/kg IV Days 21 and 28 (mean tumor 150 mm^3)): greater than 20%
Ataxia (MDA-MB-435 tumor [2]; 60 mg/kg IV weekly×2, listed as docetaxel): developed ataxia
Ataxia (MDA-MB-435 tumor [2]; 60 mg/kg IV weekly×2, listed as free docetaxel): Ataxia was observed four days after the second treatment
Body weight above initial on Day 14 ([3]; 30 mg/kg IV q7dx2): 3%
Mice developing ataxia ([3]; 30 mg/kg q7dx2): no mice
Lymphocyte mean ([3]; 30 mg/kg q7dx2, Day 14): 4350 cells/μL
Neutrophil mean ([3]; 30 mg/kg q7dx2, Day 14): 556 cells/μL
WBC # mean ([3]; 30 mg/kg q7dx2, Day 14): 5.1 ×1000 cells/μL
Ataxia ([3]; 30 mg/kg q7dx2): 0%
Body weight above initial on Day 14 ([3]; 45 mg/kg IV q7dx2): 2%
Lymphocyte mean ([3]; 45 mg/kg q7dx2, Day 14): 6780 cells/μL
Mice developing ataxia ([3]; 45 mg/kg q7dx2, Day 14): One mouse
Neutrophil mean ([3]; 45 mg/kg q7dx2, Day 14): 752 cells/μL
WBC # mean ([3]; 45 mg/kg q7dx2, Day 14): 7.8 ×1000 cells/μL
Ataxia ([3]; 45 mg/kg q7dx2): 20%
Weight loss after second treatment, by end of study ([3]; 60 mg/kg IV q7dx2, Day 14): 19%
Mice developing ataxia ([3]; 60 mg/kg q7dx2): Five out of five mice
Lymphocyte mean ([3]; 60 mg/kg q7dx2, Day 14): 5590 cells/μL
Neutrophil mean ([3]; 60 mg/kg q7dx2, Day 14): 470 cells/μL
WBC # mean ([3]; 60 mg/kg q7dx2, Day 14): 6.2 ×1000 cells/μL
Ataxia ([3]; 60 mg/kg q7dx2): 100%
Effect on serum chemistry parameters ([3]; q7dx2): did not affect any serum chemistry parameter at doses up to 60 mg/kg
Day mean tumor volume endpoint (≧3000 mm^3) reached (B16.F10 tumor [4]; 15 mg/kg IV 1/wk×3): 29 days
Day of 0% survival (B16.F10 tumor [4]; 15 mg/kg IV 1/wk×3): 43 days
Day of 50% survival (B16.F10 tumor [4]; 15 mg/kg IV 1/wk×3): 29 days
Increase in TGD (B16.F10 tumor [4]; 15 mg/kg IV 1/wk×3): 45%
Maximum body weight loss (B16.F10 tumor [4]; 15 mg/kg IV 1/wk×3): 2%
Tumor growth delay (TGD) (B16.F10 tumor [4]; 15 mg/kg IV 1/wk×3): 9 days
Tumor growth inhibition (% TGI) (B16.F10 tumor [4]; 15 mg/kg IV 1/wk×3): 75%
Tumor growth inhibition (% TGI) (B16.F10 tumor [4]; 15 mg/kg IV 1/wk×3, listed as free docetaxel): 75%
Maximum body weight loss (B16.F10 tumor [4]; 30 mg/kg IV 1/wk×3): 12% and 14%
Tumor growth delay (TGD) (B16.F10 tumor [4]; 30 mg/kg IV 1/wk×3): 23 days and 18 days
Tumor growth inhibition (% TGI) (B16.F10 tumor [4]; 30 mg/kg IV 1/wk×3): 92% and 81%
Day mean tumor volume endpoint (≧3000 mm^3) reached (B16.F10 tumor [4]; [13]): 43 days and 38 days
Day of 0% survival (B16.F10 tumor [4]; [13]): 45 days and 43 days
Day of 50% survival (B16.F10 tumor [4]; [13]): 40 days and 36 days
Increase in TGD (B16.F10 tumor [4]; [13]): 115% and 90%
Tumor growth delay (TGD) (B16.F10 tumor [4]; [13]): 23 days and 18 days
Tumor growth inhibition (% TGI) (B16.F10 tumor [4]; [13]): 92% and 81%
Day of 0% survival (B16.F10 tumor [5]; 30 mg/kg 1/wk×3): 45 days
Day of 50% survival (B16.F10 tumor [5]; 30 mg/kg 1/wk×3): 40 days
Day mean tumor volume endpoint (≧3000 mm^3) reached (B16.F10 tumor [5]; 30 mg/kg IV 1/wk×3): 43 days
Increase in TGD (B16.F10 tumor [5]; 30 mg/kg IV 1/wk×3): 115%
Maximum body weight loss (B16.F10 tumor [5]; 30 mg/kg IV 1/wk×3): 12%
Tumor growth delay (TGD) (B16.F10 tumor [5]; 30 mg/kg IV 1/wk×3): 23 days
Tumor growth inhibition (% TGI) (B16.F10 tumor [5]; 30 mg/kg IV 1/wk×3): 92%
Maximum body weight loss (B16.F10 tumor [5]; [13]): did not cause any significant body weight loss
Tumor growth inhibition (% TGI) (B16.F10 tumor [5]; [13]): 92%
Effect on tumors allowed to grow to 500 mm^3 (MDA-MB-435 tumor [6]): unable to suppress tumor growth over this time period
